The text below walks through data of patent US4886517A, “Dyeing composition for human hair containing an azo dye” (L'Oreal, priority 1985, dated 1989).

The structures appear in SMILES notation.

For data set [1], the system named is Salmonella strains. Kind of data set: Ames test (mutagenicity). The format is biochemical.
A short description of data set [2]: Dye fastness on hair, fastness to washing/shampooing. More on the design: species or system human. The conditions noted are these: compared to nitro benzene dyes.
Data set [3] is described as follows: Solubility in 96° ethanol at 25° C. The data set is classed as physicochemical. The source says:
The compound of formula (II) also has the advantage of having a good solubility in the usual dye carriers.

For `Nc1ccc(N=Nc2ccc(N(CCO)CCO)cc2)cc1` [(I)], the “mutagenicity (Ames test)” value in data set [1] (five strains of the Salmonella type, in the presence of a S-9 Mix microsomal activator) was “mutagenic to five strains of the Salmonella type”. The stability to washing entry in data set [2] is “improved stability to washing”. Further, the solubility in data set [3] was determined as 1.3%.

Turning to `Cc1cc(N(CCO)CCO)ccc1N=Nc1ccc(N)cc1` [(II)], the non-mutagenicity result in data set [1] (strains and activation not stated for this compound) is “non-mutagenicity has been demonstrated”. Moreover, the solubility in data set [3] is on record as 5.3%.
